For one assay, the target named is T1, Muscarinic M1 (Homo sapiens, UniProt P11229).
T1 construct: Eurofins Panlabs, Inc
The experiment in a line: Radioligand binding, Muscarinic M1.

Assay [1] deals with T2, Nicotinic Acetylcholine α1, Bungarotoxin (Homo sapiens, UniProt P02708+P07510+Q07001).
T2 construct: Eurofins Panlabs, Inc
The assay is described as follows: biochemical. It is filed as binding. Particulars: read-out: % Inh.

In assay [2] the target is T3, Transporter, Serotonin (5-Hydroxytryptamine) (SERT) (Homo sapiens, UniProt P31645).
T3 construct: Eurofins Panlabs
T3 sequence (P31645 whole entry): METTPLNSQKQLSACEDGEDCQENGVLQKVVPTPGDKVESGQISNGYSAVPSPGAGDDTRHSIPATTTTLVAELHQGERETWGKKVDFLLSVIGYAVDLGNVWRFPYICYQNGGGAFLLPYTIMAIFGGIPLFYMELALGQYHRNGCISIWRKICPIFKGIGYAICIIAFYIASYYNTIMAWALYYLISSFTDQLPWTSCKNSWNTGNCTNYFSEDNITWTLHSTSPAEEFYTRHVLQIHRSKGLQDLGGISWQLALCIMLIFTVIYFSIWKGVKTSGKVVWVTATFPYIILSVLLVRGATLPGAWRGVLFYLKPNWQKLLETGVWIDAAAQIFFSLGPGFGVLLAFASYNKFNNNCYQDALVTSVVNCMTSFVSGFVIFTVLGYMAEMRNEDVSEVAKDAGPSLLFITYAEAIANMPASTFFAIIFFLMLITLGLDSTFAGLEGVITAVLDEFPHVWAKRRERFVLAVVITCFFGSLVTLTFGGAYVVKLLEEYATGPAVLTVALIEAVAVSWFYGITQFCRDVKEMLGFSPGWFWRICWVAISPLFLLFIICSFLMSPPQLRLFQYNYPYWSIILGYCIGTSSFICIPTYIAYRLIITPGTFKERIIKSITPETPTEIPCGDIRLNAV
The assay is described as follows: Radioligand binding, Transporter, Serotonin (5-Hydroxytryptamine) (SERT).

The next assay concerns the target T4, Sigma σ1 (Homo sapiens, UniProt Q99720).
T4 construct: Eurofins Panlabs
The assay is described as follows: Radioligand binding, Sigma σ1.

We go through one molecule from patent US9745261B2, “Inhibitors of the MITF molecular pathway” (THE GENERAL HOSPITAL CORPORATION, priority 2013, dated 2017).

T4 sequence (Q99720 whole entry): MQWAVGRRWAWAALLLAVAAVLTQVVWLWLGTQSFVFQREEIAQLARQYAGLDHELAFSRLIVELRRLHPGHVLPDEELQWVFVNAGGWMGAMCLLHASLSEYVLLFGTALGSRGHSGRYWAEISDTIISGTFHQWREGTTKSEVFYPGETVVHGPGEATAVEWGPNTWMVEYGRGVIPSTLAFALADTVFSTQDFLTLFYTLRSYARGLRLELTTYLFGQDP
T1 sequence (P11229 whole entry): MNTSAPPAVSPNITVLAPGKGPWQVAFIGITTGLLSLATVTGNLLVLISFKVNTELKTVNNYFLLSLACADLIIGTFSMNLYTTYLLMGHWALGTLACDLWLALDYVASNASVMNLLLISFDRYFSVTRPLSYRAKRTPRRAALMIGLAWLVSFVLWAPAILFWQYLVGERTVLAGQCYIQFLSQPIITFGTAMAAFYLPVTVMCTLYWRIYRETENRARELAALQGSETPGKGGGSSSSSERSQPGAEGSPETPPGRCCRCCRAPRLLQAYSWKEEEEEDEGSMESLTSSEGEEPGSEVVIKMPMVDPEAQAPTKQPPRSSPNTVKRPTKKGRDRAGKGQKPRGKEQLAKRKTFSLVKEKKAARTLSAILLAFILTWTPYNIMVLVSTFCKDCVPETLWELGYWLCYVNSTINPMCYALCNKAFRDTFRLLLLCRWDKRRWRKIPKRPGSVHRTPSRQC
T2 sequence (P02708 21-457): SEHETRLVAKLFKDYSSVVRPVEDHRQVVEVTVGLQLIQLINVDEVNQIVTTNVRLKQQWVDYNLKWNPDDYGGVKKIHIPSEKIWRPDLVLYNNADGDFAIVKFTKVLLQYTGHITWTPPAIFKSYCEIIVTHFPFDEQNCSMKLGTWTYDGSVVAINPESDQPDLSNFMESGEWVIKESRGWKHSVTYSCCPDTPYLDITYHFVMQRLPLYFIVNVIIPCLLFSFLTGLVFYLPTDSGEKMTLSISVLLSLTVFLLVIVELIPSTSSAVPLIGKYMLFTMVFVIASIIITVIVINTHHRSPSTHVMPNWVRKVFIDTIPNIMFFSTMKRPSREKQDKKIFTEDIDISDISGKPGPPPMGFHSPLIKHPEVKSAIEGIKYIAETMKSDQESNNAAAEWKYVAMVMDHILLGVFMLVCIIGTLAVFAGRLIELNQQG
T2 sequence (P07510 23-517): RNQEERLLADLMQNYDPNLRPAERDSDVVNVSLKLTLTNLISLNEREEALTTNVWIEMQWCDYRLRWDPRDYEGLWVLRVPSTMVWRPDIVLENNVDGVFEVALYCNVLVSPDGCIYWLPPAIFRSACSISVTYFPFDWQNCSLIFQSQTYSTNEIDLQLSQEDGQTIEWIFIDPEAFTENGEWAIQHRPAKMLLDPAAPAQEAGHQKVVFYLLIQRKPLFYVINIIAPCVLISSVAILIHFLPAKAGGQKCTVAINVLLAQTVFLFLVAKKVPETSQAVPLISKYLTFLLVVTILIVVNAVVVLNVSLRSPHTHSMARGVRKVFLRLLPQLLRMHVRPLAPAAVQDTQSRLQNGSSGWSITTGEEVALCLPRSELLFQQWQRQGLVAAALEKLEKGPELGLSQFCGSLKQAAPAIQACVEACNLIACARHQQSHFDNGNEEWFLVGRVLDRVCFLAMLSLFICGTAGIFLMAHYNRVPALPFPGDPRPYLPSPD
T2 sequence (Q07001 22-517): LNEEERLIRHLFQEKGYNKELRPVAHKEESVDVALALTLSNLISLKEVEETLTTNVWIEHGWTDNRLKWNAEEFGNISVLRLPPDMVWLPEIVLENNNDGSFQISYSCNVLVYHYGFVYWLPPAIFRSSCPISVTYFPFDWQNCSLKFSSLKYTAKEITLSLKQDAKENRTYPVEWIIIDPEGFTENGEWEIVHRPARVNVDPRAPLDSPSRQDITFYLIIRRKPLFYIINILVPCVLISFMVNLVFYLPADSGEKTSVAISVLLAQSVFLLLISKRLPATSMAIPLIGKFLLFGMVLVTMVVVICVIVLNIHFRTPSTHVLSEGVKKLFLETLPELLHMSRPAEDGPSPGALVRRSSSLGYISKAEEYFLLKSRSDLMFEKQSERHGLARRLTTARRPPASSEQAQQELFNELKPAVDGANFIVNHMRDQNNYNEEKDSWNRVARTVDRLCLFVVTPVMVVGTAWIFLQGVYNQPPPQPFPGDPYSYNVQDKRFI
T2 sequence (P11230 24-501, further chain): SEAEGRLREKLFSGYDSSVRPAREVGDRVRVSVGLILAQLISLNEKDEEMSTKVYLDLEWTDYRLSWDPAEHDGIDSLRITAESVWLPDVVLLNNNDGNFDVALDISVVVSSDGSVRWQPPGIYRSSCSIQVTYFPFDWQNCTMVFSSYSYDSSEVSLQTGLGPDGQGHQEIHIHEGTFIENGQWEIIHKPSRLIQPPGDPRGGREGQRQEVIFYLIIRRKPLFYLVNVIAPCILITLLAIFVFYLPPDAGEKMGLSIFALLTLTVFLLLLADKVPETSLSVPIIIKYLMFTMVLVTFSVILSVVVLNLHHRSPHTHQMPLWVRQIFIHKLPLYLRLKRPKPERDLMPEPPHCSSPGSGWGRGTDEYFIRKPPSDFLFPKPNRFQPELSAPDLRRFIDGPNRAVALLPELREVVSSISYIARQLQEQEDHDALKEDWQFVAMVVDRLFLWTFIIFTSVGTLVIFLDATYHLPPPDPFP

`NS(=O)(=O)c1ccc(NC2=CC(=O)c3ccccc3C2=O)cc1` [Example 1, 4-((1,4-Dioxo-1,4-dihydronaphthalen-2-yl)amino)benzenesulfonamide]: the inhibition at 10 µM on Muscarinic M1 was 7%; in assay [1], -2%; in assay [2], -5%; at Sigma σ1, 15%.
